Experimental data: patent US20160310501A1, “GABA[…] SIGMA RECEPTOR LIGANDS COMBINATIONS” (LABORATORIOS DEL DR. ESTEVE, S.A., priority 2013, published 2016)
Structures can show the parent of a compound that is named as a salt.

Test system: post-operative pain model in rats
Assay: Mechanical allodynia (von Frey filaments) in the post-operative pain model (plantar incision)
Assay type: in vivo
Description: The induction of anesthesia in rats was performed with 3% isofluran for veterinary use, employing an Ohmeda vaporizer and an anesthesia chamber. Anesthesia was kept during the surgical operation by a tube which directs the isofluran vapors to the animal's snout. Once the rats were anesthetized, they were laid down in a prone position and their right hind paws were cleaned out with alcohol.
Then, a skin incision in the hindpaw of about 10 mm was made by means of a scalpel, starting about 5 mm from the heel and extending toward the toes. Fascia was located and by means of curve scissors muscle was elevated and a longitudinal incision of about 5 mm was made, thus the muscle origin and insertion remained intact. The skin of the paw was stitched with a suturing stitch with breaded silk (3.0) and the wound was cleaned out with povidone.
The assessment was performed 30 minutes after the administration of product and always 4 hours after the plantar incision. The analysis was carried out evaluating the mechanical allodynia. It was tested using von Frey filaments: Animals were placed in methacrylate cylinders on an elevated surface, with metallic mesh floor perforated in order to apply the filaments. After an acclimation period of about 30 minutes within the cylinders, both hindpaws were stimulated (the injured and the non-injured paw, serving the latter as control), starting with the lowest force filament (0.4 g) and reaching a 15 g filament. The animal's response to pain was manifested by the withdrawal of the paw as a consequence of the painful stimulus caused by a filament.
(§1) The efficacy of the combined use of Pregabalin and compound 63.HCl was tested at different doses of compound 63.HCl (5, 10, 20, 40 and 80 mg/kg), while the Pregabalin dose remained constant (0.04 mg/kg). The administrations were performed 3.5 hours after surgery. The treated subjects were tested according to the mechanical allodynia protocol above (FIG. 1).
as §1, with “Gabapentin” for “Pregabalin”, “(10,” for “(5, 10,”, “(10” for “(0.04”, “2).” for “1).”

Structure (SMILES): CC(C)C[C@H](CN)CC(=O)O [Pregabalin]
- effect (analgesia, mechanical allodynia) (Pregabalin alone, sub-active dose 0.04 mg/kg, FIG. 1): non-significant effect

Structure (SMILES): Cc1cc(OCCN2CCOCC2)nn1-c1ccc2ccccc2c1 [compound 63.HCl, 4-{2-[5-Methyl-1-(naphthalen-2-yl)-1H-pyrazol-3-yloxy]ethyl}morpholine hydrochloride]
- ED50 (Rattus norvegicus, compound alone, 10, 20, 40 and 80 mg/kg, FIG. 2): 40 mg/kg
- Emax (Rattus norvegicus, compound alone, dose dependent (5, 10, 20, 40 and 80 mg/kg), FIG. 1, 30 min after administration, 4 h after plantar incision, read-out: maximum effect): 43%

Structure (SMILES): NCC1(CC(=O)O)CCCCC1 [Gabapentin]
- effect (analgesia, mechanical allodynia) (Gabapentin alone at 10 mg/kg, non-significant, FIG. 2): 0±2%
